This is an account of results in article PMC7691360, “Synthesis of novel cytotoxic tetracyclic acridone derivatives and study of their molecular docking, ADMET, QSAR, bioactivity and protein binding properties” (Scientific Reports, 2020).

In one data set the test system is HT29 cells. Description: MTT cytotoxicity assay against HT29. The note with it: Homo sapiens, 48 h, read-out: Percentage of inhibition against treated concentrations; for activity at 1 µM: HT-29, HT29, 1 µM; for activity at 5 µM: HT-29, HT29, 5 µM; for activity at 10 µM: HT-29, HT29, 10 µM; for activity at 25 µM: HT-29, HT29, 25 µM; for activity at 50 µM: HT-29, HT29, 50 µM. Format: cell-based. The protocol: (§1) Anticancer activity of 7a–s has been evaluated by MTT [3-(4,5-dimethylthiazol-2-yl)-2,5-diphenyl-tetrazolium bromide] assay and the cell lines HT29 (ATCC: HTB-38), MDA-MB-231 (ATCC: HTB-26), HEK293T (ATCC: CRL-3216) were procured from American type cell culture collection (ATCC), Manassas, USA and other chemicals were procured from Sigma-Aldrich. Then absorbance (used as a measure of cell proliferation) was measured at 570 nm with a kinetic micro-plate reader (BioTek, Winooski, Vermont).
(§2) Having synthesized a series of the title compounds, all of them were screened for their in vitro anticancer profiles against a panel of human colorectal adenocarcinoma (HT29), human breast adenocarcinoma (MDA-MB-231) and mutated Human embryonic kidney 293 (HEK293T) cancer cell lines by using MTT colourmetric assay as per Johan van Meerloo protocol. The three cell lines were cultured in […] medium and supplemented with 10% FBS followed by 100 units/mL penicillin/ streptomycin and were cultured at 37 °C in 5% CO2. Cell proliferation of the growing cells was measured in terms of logarithmic standards. Analytically, all the cultured cells were plated onto 96 well plates at a starting density of 10^5 cells. Then all the cells were treated with title compounds 7a–s for a period of 48 h with different concentrations. After this incubation cell proliferation inhibition was determined by MTT assay and all the experiments were conducted in triplicates and readings were presented as mean ± SD and provided in Tables 1, 2 and 3.

A further data set has as its system MDA-MB-231 cells. Description: MTT cytotoxicity assay against MDA-MB-231. The data set is classed as cell-based. The note with it: Homo sapiens, 48 h, read-out: Percentage of inhibition against treated concentrations; for activity at 1 µM: MDAMB231, 1 µM; for activity at 5 µM: MDAMB231, 5 µM; for activity at 10 µM: MDAMB231, 10 µM; for activity at 25 µM: MDAMB231, 25 µM; for activity at 50 µM: MDAMB231, 50 µM. The protocol: as §1, §2
(Formazan colour is commonly taken as a measure of viable cells.)

Another data set relates to HEK293T cells. Description: MTT cytotoxicity assay against HEK293T. The data set is classed as cell-based. The note with it: Homo sapiens, HEK-293T, 48 h, read-out: Percentage of inhibition against treated concentrations. As for the experimental part:
as §1, §2

One may read the melting point as the temperature of the solid-liquid transition. Take `O=C(c1ccncc1)N1CCn2c3ccccc3c(=O)c3cccc1c32` [Compound 7c, 3-Isonicotinoyl-2,3 dihydropyrazino[3,2,1-de]acridin-7(1H)-one]: the melting point was 233 to 235 °C. Further, in the data set on HT29 cells, the activity at 1 µM came to 90.02 ± 0.31%, the activity at 5 µM worked out at 66.2 ± 0.83%, the activity at 10 µM came out at 52.9 ± 0.84% and the activity at 25 µM was found to be 40.37 ± 0.15%. The activity at 50 µM in the data set on HT29 cells was determined as 20.79 ± 0.08%. In the data set with MDA-MB-231 cells, the activity at 1 µM stood at 86.8 ± 0.96%, the activity at 5 µM was found to be 57.39 ± 0.32%, the activity at 10 µM is 47.2 ± 0.93% and the activity at 25 µM is 38.69 ± 0.28%. Further, the activity at 50 µM in the data set with MDA-MB-231 cells is 22.8 ± 0.89%. In the data set with HEK293T cells, the activity at 1 µM amounted to 96.63 ± 0.53%, the activity at 5 µM was 94.28 ± 0.53%, the activity at 10 µM turned out to be 90.18 ± 0.38% and the activity at 25 µM is 83.28 ± 0.21%. Also, in the data set on HEK293T cells, the activity at 50 µM turned out to be 49.08 ± 0.23%.
In the case of `O=C(c1ccccn1)N1CCn2c3ccccc3c(=O)c3cccc1c32` [Compound 7a, 3-Picolinoyl-2,3-dihydropyrazino[3,2,1-de]acridin-7(1H)-one], the melting point is 232 to 234 °C. Further, in the data set on HT29 cells, the activity at 1 µM is 78.91 ± 0.42%, the activity at 5 µM is 57.61 ± 0.39%, the activity at 10 µM turned out to be 44.1 ± 0.86% and the activity at 25 µM is 14.9 ± 0.36%. Further, the activity at 50 µM in the data set on HT29 cells worked out at 8.77 ± 0.72%. For the same compound, in the data set with MDA-MB-231 cells, the activity at 1 µM was found to be 84.42 ± 0.35%, the activity at 5 µM was 55.22 ± 0.46%, the activity at 10 µM worked out at 44.52 ± 0.29% and the activity at 25 µM stood at 25 ± 0.27%. Moreover, the activity at 50 µM with MDA-MB-231 cells was 14.7 ± 0.42%. Besides, in the data set with HEK293T cells, the activity at 1 µM was 99.93 ± 0.11%, the activity at 5 µM amounted to 98.52 ± 0.96%, the activity at 10 µM was 97.63 ± 0.45% and the activity at 25 µM worked out at 96.81 ± 0.2%. In the data set on HEK293T cells, the activity at 50 µM amounted to 57 ± 0.81%.
